In US12110289B2, “Heterocyclic compounds, preparation methods and uses thereof” (InventisBio Co., Ltd., priority 2020, dated 2024):

Experiments:
[1] = tested on: Lung cancer cell line NCI-H358 containing KRas G12C mutation; assay: Assay for cell proliferation (Cell-titer Glo, 5 days); format: cell-based, human
Summary of the method: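 NCI-H358 (KRas G12C) cells, 2000 per well, attached overnight at 37 °C, 5% CO2, then treated with compound for 5 days at 0.5% DMSO final. Proliferation measured by CellTiter-Glo luminescence after 10 min at RT.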

[2] = Rat PK study, single i.g. dose; format: in vivo; details: female, SD, plasma, PO, 10 mg/kg
Protocol: The pharmacokinetic (PK) profile of compounds following single i.g in SD rat obtained from […] Laboratory Animal Co., LTD of Shanghai was determined. Three female rats of weight around 220 g were used. Compounds were prepared at 1 mg/ml with the formulation of 10% DMSO+10% solutol HS15+80% (10% HPβCD in water). Blood samples (0.2 mL) were collected at 0 h (pre-dose) and 0.25, 0.5, 1, 2, 4, 8, 24 h time points after administration of compounds at the dose of 10 mg/kg. The collected blood samples were centrifuged without delay and the plasma was separated and transferred into tubes before storage at -70° C. prior to analysis. Aliquots of the plasma unknowns, blank and calibration standards were placed in 1.5 mL tubes and mixed with acetonitrile/methanol (1/1, v/v) containing IS. After vortexing for 5 min, each sample was centrifuged at 14000 rpm at 4° C. for 10 min. The supernatant were injected into the LC-MS/MS system. […] Eluates were analyzed using an API4000 Q-Trap mass spectrometer with a TurboIonSpray interface. Chromatographic separation was done with a mobile phase composed of water with 0.1% formic acid (solution A) and acetonitrile with 0.1% formic acid (solution B). The mobile phase was delivered at a flow rate of 0.6 mL/min, using a stepwise gradient elution program. To improve the sensitivity of the test compound screening, a MRM method in positive electrospray ionization mode was employed. Mass spectrometry data was acquired and analyzed using AB Sciex Analyst version 1.6.2 software. The pharmacokinetic parameters were derived using standard noncompartmental methods with Phoenix WinNonLin Professional Version 8.1.

NCI-H358 xenograft = assay: NSCLC H358 xenograft model, tumor volume; format: in vivo, BALB/c nude mice; details: for reduction of tumor volume, combined treatment vs either agent alone: FIG. 5
Protocol: (§1) All the procedures related to animal handling, care and the treatment in this study were performed according to the guidelines approved by the Institutional Animal Care and Use Committee (IACUC) of SIPPER B&K following the guidance of the Association for Assessment and Accreditation of Laboratory Animal Care (AAALAC). At the time of routine monitoring, the animals were checked for any effects of tumor growth on normal behavior such as mobility, food and water consumption (by looking only), body weight gain/loss (body weights were measured twice weekly), eye/hair matting and any other abnormal effect. Death and observed clinical signs were recorded on the basis of the numbers of animals within each subset.
(§2) The NCI-H358, SW837, NCI-H2122 tumor cells were purchased from the American Type Culture Collection (ATCC). Cells were maintained in vitro as monolayer cultured in RPMI-1640 or DMEM medium supplemented with 10% fetal bovine serum, 50 IU/ml penicillin/streptomycin (GIBCO) at 37° C. in an atmosphere of 5% CO2 in air. The tumor cells were routinely sub cultured twice weekly by trypsin-EDTA treatment. The cells growing in an exponential growth phase were harvested and counted for tumor inoculation.
For tumor bearing models, female 6- to 8-week-old athymic BALB/c nude mice were used for human cancer cell lines. Each mouse was inoculated subcutaneously at the right flank with tumor cells (10×10^6) in 0.1 ml of PBS. The treatments were started when the average tumor size reached approximately 200-250 mm^3. Carboplatin, Cisplatin was injected twice a week by i.p. Vehicles and other test articles were given orally as a suspension by gavage once daily during the study or treatment period.
(§3) Tumor volume was calculated by measuring two perpendicular diameters using the following formula: (L×W 2)/2 in which L and W refer to the length and width tumor diameter, respectively. Results are expressed as mean and standard deviation of the mean.

NCI-H2122 xenograft = assay: NSCLC H2122 xenograft model, tumor volume; format: in vivo, BALB/c nude mice; details: 60 mg/kg oral once daily vs AMG510 at 60 mg/kg; FIG. 3
Protocol: as §1
as §2, with “The tumor cells were routinely sub cultured twice weekly by trypsin-EDTA treatment.” left out, “inoculation. […]” for “inoculation.”
as §3

C=CC(=O)N1C[C@H](C)N(c2nc(=O)n(-c3c(C4CC4)ncnc3C3CC3)c3nc(-c4c(N)cccc4F)c(Cl)cc23)C[C@H]1C [Compound 126]
potency in inhibiting KRAS G12C compared with corresponding isopropyl analogs [1]: better potency
IC50 ([1]; Homo sapiens, NCI-H358, 120 h, NCI-H358, 5 days, Cell-titer Glo, read-out: IC50 (nM), Inhibition of NCI-H358 Cell Proliferation): 0.6 nM
fold more potent: 2-amino-6-fluoro-phenyl compound vs. corresponding 2-fluoro-phenyl compound at R8 ([1]; NCI-H358 IC50 comparison): about 15 ×
AUC(0-t) ([2]; read-out: Rat PO (10 mpk) AUC last): 3.8 µM·h
Cmax ([2]; read-out: Rat PO (10 mpk) Cmax): 1060 nM
bioavailability ([2]; read-out: Rat PO (10 mpk) F %): 54%
reducing tumor volume compared with AMG510 (NCI-H358 xenograft; 30 mg/kg oral once daily vs AMG510 at 30 mg/kg, FIG. 2): more effective than AMG510
reduction of tumor volume, combined treatment vs either agent alone (NCI-H358 xenograft; Compound 126 at 5 mg/kg combined with RMC-4550 at 10 mg/kg): much better reduction of tumor volume
reduction of tumor volume, combined treatment vs either agent alone (NCI-H358 xenograft; Compound 126 at 5 mg/kg combined with cisplatin at 2 mg/kg): much better reduction of tumor volume
reducing tumor volume compared with AMG510 (NCI-H2122 xenograft): more effective than AMG510
